The RepoRT retention time repository (doi:10.1016/j.chroma.2015.11.014)

Assay: RP, Agilent ZORBAX Eclipse Plus C18, 150 × 2.1 mm, 3.5 µm, 40 °C, 0.3 mL/min, estimated dead time 1.1 min; A: water + 0.1% formic acid; B: acetonitrile + 0.1% formic acid; gradient (min/%B) 0/2 1/2 2/20 16.5/98 22/98
Details: stereoisomer not certain

`c1ccc([P+](CCC2OCCCO2)(c2ccccc2)c2ccccc2)cc1` and `O=C([O-])CC[P+](c1ccccc1)(c1ccccc1)c1ccccc1` are within 1.5-fold of each other in LC retention time: 7.98 min for the first, 6.75 min for the second.

`CCC1CCCC(OC2CCC(N(C)C)C(C)O2)C(C)C(=O)C2=CC3C(C=CC4CC(OC5OC(C)C(OC)C(OC)C5OC)CC43)C2CC(=O)O1` (stereo not drawn) and `CCC1OC(=O)C(C)C(OC2CC(C)(OC)C(O)C(C)O2)C(C)C(OC2OC(C)CC(N(C)C)C2O)C(C)(OC)CC(C)C(=O)C(C)C(O)C1(C)O` (stereo not drawn) are within 1.5-fold of each other in LC retention time: 10.4 min for the first, 8.86 min for the second.

`Cn1cnc2c1c(=O)[nH]c(=O)n2C` and `Cn1c(=O)[nH]c(=O)c2[nH]cnc21` are within 1.5-fold of each other in LC retention time: 5.24 min for the first, 4.5 min for the second.

`CCCCC(=O)N(Cc1ccc(-c2ccccc2-c2nn[nH]n2)cc1)C(C(=O)O)C(C)C` (stereo not drawn) and `CCN(CC)C(=O)C(C)Oc1cccc2ccccc12` (stereo not drawn) are within 1.5-fold of each other in LC retention time: 11.4 min for the first, 12.6 min for the second.

`CCN(Cc1cccc(S(=O)(=O)O)c1)c1ccc(C(=C2C=CC(=[N+](CC)Cc3cccc(S(=O)(=O)O)c3)C=C2)c2ccccc2S(=O)(=O)[O-])cc1` and `CC[N+](CC)(CC([O-])=Nc1c(C)cccc1C)Cc1ccccc1` are within 1.5-fold of each other in LC retention time: 7.08 min for the first, 7.58 min for the second.

`Nc1ccc(C(=O)O)c(O)c1` and `O=C(O)c1ccccc1O` are within 1.5-fold of each other in LC retention time: 5.48 min for the first, 7.89 min for the second.

`CC(C)(c1ccc(O)c([N+](=O)[O-])c1)c1ccc(O)c([N+](=O)[O-])c1` and `COc1ccc(C(=O)c2ccccc2O)c(O)c1` are within 1.5-fold of each other in LC retention time: 13.8 min for the first, 11.8 min for the second.

`CSc1nc2ccccc2s1` and `c1ccc2sc(SSN3CCOCC3)nc2c1` are within 1.5-fold of each other in LC retention time: 12.2 min for the first, 13.8 min for the second.

`O=C([O-])CCC[P+](c1ccccc1)(c1ccccc1)c1ccccc1` and `CCCC[P+](c1ccccc1)(c1ccccc1)c1ccccc1` are within 1.5-fold of each other in LC retention time: 7.19 min for the first, 8.85 min for the second.

First: O=C(O)CC(O)(CC(=O)O)C(=O)O
Second: CC(Cc1ccc(C(C)C(=O)O)cc1)C(=O)O (stereo not drawn)
The LC retention time of the first is 4.1-fold lower: 2.08 min for the first, 8.48 min for the second.

`NCCCCC(NC(CCc1ccccc1)C(=O)O)C(=O)N1CCCC1C(=O)O` (stereo not drawn) and `O=C(O)C(c1ccccc1)C1CCCCN1` (stereo not drawn) are within 1.5-fold of each other in LC retention time: 5.18 min for the first, 4.91 min for the second.

`Cc1cn(C2CC(N=[N+]=[N-])C(CO)O2)c(=O)[nH]c1=O` (stereo not drawn) and `CSCC1OC(n2cnc3c(N)ncnc32)C(O)C1O` (stereo not drawn) are within 1.5-fold of each other in LC retention time: 5.9 min for the first, 4.79 min for the second.

Compared with `CC12CC3CC(C)(C1)CC(N)(C3)C2`, `CC(=O)C1CCC2C3CCC4=CC(=O)CCC4(C)C3CCC12C` (stereo not drawn) is 2.1-fold higher in LC retention time: 6.65 min for the first, 13.8 min for the second.

`CCOP(=S)(OCC)Oc1cc(C)nc(C(C)C)n1` and `CCNc1nc(NC(C)(C)C)nc(SC)n1` are within 1.5-fold of each other in LC retention time: 14.5 min for the first, 9.67 min for the second.

`O=c1c(-c2ccc(O)cc2)coc2cc(O)ccc12` and `O=C1OC2(c3ccc(O)cc3Oc3cc(O)ccc32)c2ccccc21` are within 1.5-fold of each other in LC retention time: 7.74 min for the first, 9.53 min for the second.

`CCCCCCCCCCCCOS(=O)(=O)O` and `CCCCCCCCCCCCCN1CC(C)OC(C)C1` (stereo not drawn) are within 1.5-fold of each other in LC retention time: 14.9 min for the first, 10.4 min for the second.

First: COC1C=COC2(C)Oc3c(C)c(O)c4c(O)c(c5c(nc6cc(C)ccn65)c4c3C2=O)NC(=O)C(C)=CC=CC(C)C(O)C(C)C(O)C(C)C(OC(C)=O)C1C (stereo not drawn)
Second: CC1c2cccc(O)c2C(O)=C2C(=O)C3(O)C(O)=C(C(N)=O)C(=O)C(N(C)C)C3C(O)C21 (stereo not drawn)
The LC retention time of the first is 1.8-fold higher: 11.8 min for the first, 6.5 min for the second.

`CNCC(O)c1cccc(O)c1` (stereo not drawn) and `CN(C)c1cccc(O)c1` are within 1.5-fold of each other in LC retention time: 2.73 min for the first, 4.07 min for the second.

`O=C1NS(=O)(=O)c2ccccc21` and `NC(=O)c1ccccc1` are within 1.5-fold of each other in LC retention time: 5.2 min for the first, 5.64 min for the second.

`O=C(OC1CC2CCC(C1)[N+]21CCCC1)C(O)(c1ccccc1)c1ccccc1` (stereo not drawn) and `O=P(O)(Oc1ccccc1)Oc1ccccc1` are within 1.5-fold of each other in LC retention time: 7.41 min for the first, 8.14 min for the second.

`Cc1ccc(O)c(-n2nc3ccccc3n2)c1` and `CC(C)(C)CC(C)(C)c1ccc(O)c(-n2nc3ccccc3n2)c1` are within 1.5-fold of each other in LC retention time: 15.2 min for the first, 19.6 min for the second.

Going from `CCCCP(=O)(O)O` to `CCC(C)C(N)C(=O)O` (stereo not drawn), the LC retention time falls from 4.77 min to 2.36 min (2-fold).

Going from `C[N+](C)(Cc1ccccc1)Cc1ccccc1` to `CC(C)OP(=O)(Oc1ccccc1)Oc1ccccc1`, the LC retention time rises from 6.13 min to 12.8 min (2.1-fold).

Going from `NC(=O)CN1CCCC1=O` to `CCN1CCCC1CNC(=O)c1cc(S(=O)(=O)CC)c(N)cc1OC` (stereo not drawn), the LC retention time rises from 2.62 min to 5.57 min (2.1-fold).

`CC(C)NCC(O)COc1ccc(CCO)cc1` (stereo not drawn) and `CCNCC(O)COc1ccc(CCOC)cc1` (stereo not drawn) are within 1.5-fold of each other in LC retention time: 5.11 min for the first, 5.42 min for the second.

`COc1ccc2nc(S(=O)Cc3ncc(C)c(OC)c3C)[nH]c2c1` (stereo not drawn) and `COc1cc(Cc2cnc(N)nc2N)cc(OC)c1OC` are within 1.5-fold of each other in LC retention time: 6.46 min for the first, 5.11 min for the second.

First: O=S(=O)(O)c1ccc2ccccc2c1
Second: O=C(c1ccccc1)c1ccccc1O
The LC retention time of the first is 1.8-fold lower: 7.09 min for the first, 13 min for the second.

`CC(C)C(=O)c1ccc(C(C)C(=O)O)cc1` (stereo not drawn) and `CC(C)Cc1ccc(C(C)C(=O)O)cc1` (stereo not drawn) are within 1.5-fold of each other in LC retention time: 10.2 min for the first, 12.8 min for the second.

`CN(C)N=Nc1nc[nH]c1C(N)=O` and `O=c1[nH]cnc2[nH]ncc12` are within 1.5-fold of each other in LC retention time: 4.47 min for the first, 3.15 min for the second.

`CCCCCCCCCCCC[N+](C)(C)CCOc1ccccc1` and `CCCCCCCCCCCC[N+](C)(C)Cc1ccccc1` are within 1.5-fold of each other in LC retention time: 12 min for the first, 11.6 min for the second.

Compared with `CC(C)C(NC(=O)OC(C)(C)C)C(=O)O` (stereo not drawn), `COP(=O)(NC(C)=O)SC` (stereo not drawn) is 2-fold lower in LC retention time: 9 min for the first, 4.5 min for the second.

`C#CC[P+](c1ccccc1)(c1ccccc1)c1ccccc1` and `CC(=O)C[P+](c1ccccc1)(c1ccccc1)c1ccccc1` are within 1.5-fold of each other in LC retention time: 7.93 min for the first, 7.28 min for the second.

`CC(C)[P+](c1ccccc1)(c1ccccc1)c1ccccc1` and `Nc1ccccc1C[P+](c1ccccc1)(c1ccccc1)c1ccccc1` are within 1.5-fold of each other in LC retention time: 7.72 min for the first, 8.43 min for the second.

`CCOC(=O)Nc1cccc(N)c1C` and `CC(=O)Nc1ccccc1` are within 1.5-fold of each other in LC retention time: 5.08 min for the first, 6.74 min for the second.

First: CN1C=CN(Cc2ccccc2)C1
Second: COc1cc2c(cc1OC)C(=O)C(CC1CCN(Cc3ccccc3)CC1)C2 (stereo not drawn)
The LC retention time of the first is 1.5-fold lower: 4.93 min for the first, 7.43 min for the second.

First: CC(Cc1ccc(C(C)(C)C)cc1)CN1CC(C)OC(C)C1 (stereo not drawn)
Second: C=Cc1ccc(C[N+](C)(C)C)cc1
The LC retention time of the first is 1.8-fold higher: 9.53 min for the first, 5.4 min for the second.

Compared with `Cc1ccc(OP(=O)(Oc2ccc(C)cc2)Oc2ccc(C)cc2)cc1`, `CNCCC(Oc1cccc2ccccc12)c1cccs1` (stereo not drawn) is 1.9-fold lower in LC retention time: 15.9 min for the first, 8.43 min for the second.

`COc1ncnc(NS(=O)(=O)c2ccc(N)cc2)c1OC` and `Cc1noc(NS(=O)(=O)c2ccc(N)cc2)c1C` are within 1.5-fold of each other in LC retention time: 7.08 min for the first, 7.56 min for the second.

First: O=c1[nH]c(=O)c2[nH]cnc2[nH]1
Second: O=C1c2ccccc2C(=O)C1c1ccccc1
The LC retention time of the first is 5.8-fold lower: 2.43 min for the first, 14.2 min for the second.

First: CC(C)NCC(O)c1ccc(NS(C)(=O)=O)cc1 (stereo not drawn)
Second: CC(=O)OC1(C(C)=O)CCC2C3CC(C)C4=CC(=O)CCC4(C)C3CCC21C (stereo not drawn)
The LC retention time of the first is 3-fold lower: 4.58 min for the first, 13.7 min for the second.

First: CCC1(C2OC(C3OC(O)(CO)C(C)CC3C)CC2C)CCC(C2(C)CCC3(CC(O)C(C)C(C(C)C(OC)C(C)C(=O)O)O3)O2)O1 (stereo not drawn)
Second: O=C1CC2(CCCCC2)CN1
The LC retention time of the first is 2.7-fold higher: 20.4 min for the first, 7.59 min for the second.

Molecule `COP(=O)(OC)OC` has an LC retention time of 4.97 min.
